According to PMC11460214 (RSC Advances, 2024):

Target: T1, dihydrofolate reductase (Homo sapiens, UniProt P00374)
T1 sequence (P00374 1-187): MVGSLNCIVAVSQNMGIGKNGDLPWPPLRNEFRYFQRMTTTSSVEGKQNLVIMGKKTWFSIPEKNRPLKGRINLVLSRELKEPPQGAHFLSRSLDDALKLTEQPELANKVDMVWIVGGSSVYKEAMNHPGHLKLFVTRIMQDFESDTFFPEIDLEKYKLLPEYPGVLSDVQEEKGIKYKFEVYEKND
Assay: Dihydrofolate reductase enzyme inhibition assay
Assay type: biochemical
Details: for inhibition at 500 µM: read-out: % inhibition (0.5 mM)

Row | SMILES | IC50 [µM] | inhibition at 500 µM [%]
1 | S=C(NN=Cc1ccc(N2CCCC2)cc1)NC1CCCCC1 [Compound 5a, N-Cyclohexyl-2-[4-(pyrrolidin-1-yl)benzylidene]hydrazinecarbothioamide] | 29.1 ± 0.38 | 83.6
2 | S=C(NN=Cc1ccc(N2CCCC2)cc1)Nc1cccc(Cl)c1Cl [Compound 5c, N-(2,3-Dichlorophenyl)-2-[4-(pyrrolidin-1-yl)benzylidene]hydrazinecarbothioamide] | 36.2 ± 0.69 | 81.3
3 | COc1ccc(NC(=S)NN=Cc2ccc(N3CCCC3)cc2)cc1 [Compound 5d, N-(4-Methoxyphenyl)-2-[4-(pyrrolidin-1-yl)benzylidene]hydrazinecarbothioamide] | 12.4 ± 0.48 | 91.1
4 | Cc1cccc(C)c1NC(=S)NN=Cc1ccc(N2CCCC2)cc1 [Compound 5e, N-(2,6-Dimethylphenyl)-2-[4-(pyrrolidin-1-yl)benzylidene]hydrazinecarbothioamide] | 15.3 ± 0.26 | 90.2
5 | COc1cccc(NC(=S)NN=Cc2ccc(N3CCCC3)cc2)c1 [Compound 5h, N-(3-Methoxyphenyl)-2-[4-(pyrrolidin-1-yl)benzylidene]hydrazinecarbothioamide] | 23.1 ± 0.35 | 86.7
6 | O=[N+]([O-])c1ccc(NC(=S)NN=Cc2ccc(N3CCCC3)cc2)cc1 [Compound 5j, N-(4-Nitrophenyl)-2-[4-(pyrrolidin-1-yl)benzylidene]hydrazinecarbothioamide] | 54.1 ± 0.72 | 74.1
7 | S=C(NCCN1CCOCC1)NN=Cc1ccc(N2CCCC2)cc1 [Compound 5k, N-(2-Morpholinoethyl)-2-[4-(pyrrolidin-1-yl)benzylidene]hydrazinecarbothioamide] | 40.6 ± 0.59 | 76.9
8 | O=[N+]([O-])c1cccc(NC(=S)NN=Cc2ccc(N3CCCC3)cc2)c1 [Compound 5o, N-(3-Nitrophenyl)-2-[4-(pyrrolidin-1-yl)benzylidene]hydrazinecarbothioamide] | 45.3 ± 0.63 | 75.6

Next, values leading:

Row | IC50 [µM] | inhibition at 500 µM [%] | SMILES
9 | 33.1 ± 0.71 | 80.6 | Fc1ccc(NC(=S)NN=Cc2ccc(N3CCCC3)cc2)cc1 [Compound 5b, N-(4-Fluorophenyl)-2-[4-(pyrrolidin-1-yl)benzylidene]hydrazinecarbothioamide]
10 | 21.2 ± 0.44 | 86.2 | S=C(NN=Cc1ccc(N2CCCC2)cc1)Nc1ccccc1 [Compound 5f, N-Phenyl-2-[4-(pyrrolidin-1-yl)benzylidene]hydrazinecarbothioamide]
11 | 14.4 ± 0.29 | 89.5 | Cc1ccc(NC(=S)NN=Cc2ccc(N3CCCC3)cc2)cc1 [Compound 5g, 2-[4-(Pyrrolidin-1-yl)benzylidene]-N-(p-tolyl)hydrazinecarbothioamide]
12 | 27.5 ± 0.5 | 83.9 | S=C(NCc1ccc(Cl)cc1)NN=Cc1ccc(N2CCCC2)cc1 [Compound 5i, N-(4-Chlorobenzyl)-2-[4-(pyrrolidin-1-yl)benzylidene]hydrazinecarbothioamide]
13 | 12.4 ± 0.25 | 91.5 | S=C(NCCc1ccccc1)NN=Cc1ccc(N2CCCC2)cc1 [Compound 5l, N-Phenethyl-2-[4-(pyrrolidin-1-yl)benzylidene]hydrazinecarbothioamide]
14 | 16.3 ± 0.26 | 90.8 | S=C(NN=Cc1ccc(N2CCCC2)cc1)Nc1ccc(Br)cc1 [Compound 5m, N-(4-Bromophenyl)-2-[4-(pyrrolidin-1-yl)benzylidene]hydrazinecarbothioamide]
15 | 22.1 ± 0.37 | 88.2 | S=C(NN=Cc1ccc(N2CCCC2)cc1)Nc1cccc(Br)c1 [Compound 5n, N-(3-Bromophenyl)-2-[4-(pyrrolidin-1-yl)benzylidene]hydrazinecarbothioamide]
16 | 48.2 ± 0.6 | 74.6 | S=C(NCc1ccccc1)NN=Cc1ccc(N2CCCC2)cc1 [Compound 5p, N-Benzyl-2-[4-(pyrrolidin-1-yl)benzylidene]hydrazinecarbothioamide]
17 | 35.3 ± 0.59 | 77.3 | Fc1ccccc1NC(=S)NN=Cc1ccc(N2CCCC2)cc1 [Compound 5q, N-(2-Fluorophenyl)-2-[4-(pyrrolidin-1-yl)benzylidene]hydrazinecarbothioamide]
18 | 42.2 ± 0.63 | 79.8 | Cc1ccc(CNC(=S)NN=Cc2ccc(N3CCCC3)cc2)cc1 [Compound 5r, N-(4-Methylbenzyl)-2-[4-(pyrrolidin-1-yl)benzylidene]hydrazinecarbothioamide]
